{"source": "patent US20030216471A1", "about": "“Retinoid formulations for aerosolization and inhalation” (priority 2003, published 2003)", "key": {"[1]": {"tested_on": "TGase II", "assay": "TGase II activity in cultured human breast cancer MCF-7 cells", "assay_type": "cell-based", "experimental": "Cells were harvested and Transglutaminase II activity was measured as described below. Nebulizer solution, inhalation procedures, details of animal housing are described below.\nCultured cells were placed in 100 μl scraping buffer [A: 2800 μl (400 μl 0.5M Na-Phosphate, 500 μl 0.01M EDTA, 100 μl 1M DTT, 9 ml PBS total 10 ml)+B:700 μl (10 μl 20 mg/ml PMSF 790 μl PBS total 800 μl)] for each dish. Cells were broken by a sonicator and kept in ice until used. TGase II assay was conducted as described below and previously {8217}.\nEnzyme assay mixtures were prepared by adding 80 μl of SUBSTRATE mixture (322.8 μl H2O, 120 μl 0.5M NaBorate, 60 μl 0.01M EDTA, 60 μl 0.1M CaCl2, 6 μl 1M DTT, 240 μl dimethyl casein, 30 μl Triton X-100, 1.21 μl [^3H]-Putrescine, 120 μl Putrescine) to 20 μl sample, 20 μl scraping buffer for blank control, 20 μl (18 μl scraping buffer+2 μl TGase II) for positive control. Samples were mixed in 15 ml tubes, the tubes were shaken before putting them into a 28° C. water bath for 30 minutes. Reactions were slowed down in an ice bath. 80 μl of the incubation mixture was adsorbed onto paper disks. These were immediately dropped into cold 10% TCA (0.1% Putrescine) and washed with agitation for 7 minutes, followed by 2 additional washes with 5% TCA (0.05% putrescine) for 5-7 minutes, and once more with cold (−20° C.) 95% ethanol for 5 minutes. Paper disks were dried and placed into 5 ml Aquasol, and counted in a Liquid Scintillation Counter. Protein concentration determination was conducted by the Bradford method."}, "[2]": {"tested_on": "RARα", "assay": "Western blot of SENCAR mouse liver, dietary RA 75 weeks, RAR α", "assay_type": "in vivo", "details": "for RARα densitometry of Western blots: liver", "experimental": "(§1) Tissues were collected, frozen in dry ice and kept at −70° C. until used. 500 mg aliquots were diced in small pieces and homogenized in 300 μl of cold PBS, using the hand held homogenizer for 2˜3 minutes. Sample and washes were centrifuged at 5000×g for 20 minutes. The pellet was suspended in 400 μl of ice-cold Buffer A [2 μl 0.5M EDTA, 10 μl 100 mM EGTA, 50 μl 100MM PMSF, 10 μl 1M DTT, 10 ml (10 mM HEPES pH 7.9+10 mM KCl)], and left at ice temperature for 15 minutes. 25 μl of 10% solution of NP-40 was added and samples were mixed in a vortex vigorously for 10 seconds. Samples were centrifuged at 14,000×g for 1 minute at 4° C. and the pellet treated once more in this fashion (resuspended etc.). The supernatant was removed and 100 μl of ice-cold Buffer C [4 μl 0.5M EDTA, 20 μl 100 mM EGTA, 20 μl 100 mM PMSF, 2 μl 1M DTT, 2 ml (20 mM HEPES pH 7.9+0.4M NaCl)] was added. Pellets were resuspended by tapping gently on the bottom of the Eppendorf tubes. Samples were rocked vigorously in a bucket of ice on an orbital shaker for 30 minutes. Samples were centrifuged at 14,000×g for 5 minutes at 4° C.\n(§2) Samples were prepared by adding one part of the Sample Buffer to one part of the sample and mixing well. Samples were heated at 95° C. for 5 minutes to induce denaturation. 5 μl of Rainbow Standard and 5 μl of Biotinylated Molecular Marker were added to parallel wells. 20 μg protein per sample was loaded in each lane. Electrophoresis was performed with voltage set at 125V for about 1˜1.5 hours. Gel transfer was executed at 25V for 2 hours. The membrane was stained in Ponceau S. for 5 minutes and destained with one wash of 5% acetic acid. The membrane was then washed in TBS solution until the staining disappeared. Membranes were incubated in 1 ml blocking solution and 9 ml TBS for 60 minutes. Membranes were incubated in 1 ml of blocking solution and 19 ml TBS along with 20 μl primary antibody solution overnight (dilution of 1:1000). Membranes were washed in PBS-Tween 20, 3 times for 10 minutes each. […]"}, "[3]": {"tested_on": "RARβ", "assay": "Western blot of SENCAR mouse liver, dietary RA 75 weeks, RAR β", "assay_type": "in vivo", "details": "for RARβ densitometry of Western blots: liver", "experimental": "as §1, §2"}, "[4]": {"tested_on": "RARγ", "assay": "Western blot of SENCAR mouse liver, dietary RA 75 weeks, RAR γ", "assay_type": "in vivo", "details": "for RARγ densitometry of Western blots: liver", "experimental": "as §1, §2"}, "[5]": {"tested_on": "RARα", "assay": "Immunohistochemical analysis of SENCAR mouse liver, dietary RA", "assay_type": "in vivo", "details": "pharmacological RA diet compared to physiological RA, 75 weeks", "experimental": "Liver tissue (approximately 300 mg) was fixed in 10% formalin, embedded in paraffin and 5 μm sections were used for immunohistochemistry. Staining for RAR was similar to our previously described protocol {8656}. ABC kit Mouse/Rabbit IgG and DAB Substrate kit were used (Vector Laboratories Inc., 30 Ingold Road Burlingame, Calif.)."}, "[6]": {"tested_on": "RAR α", "assay": "Time course of dietary RA effect on SENCAR mouse liver RAR α", "assay_type": "in vivo", "details": "pharmacological dietary RA over physiological RA, day 1", "experimental": "(§3) SENCAR mice (30) were divided into six experimental groups.\nas §1\n(§4) Samples were prepared by adding one part of the Sample Buffer to one part of the sample and mixing well. Samples were heated at 95° C. for 5 minutes to induce denaturation. […]"}, "[7]": {"tested_on": "RAR β", "assay": "Time course of dietary RA effect on SENCAR mouse liver RAR β", "assay_type": "in vivo", "details": "pharmacological dietary RA over physiological RA, day 1", "experimental": "as §3, §1, §4"}, "[8]": {"tested_on": "RAR γ", "assay": "Time course of dietary RA effect on SENCAR mouse liver RAR γ", "assay_type": "in vivo", "details": "pharmacological dietary RA over physiological RA, day 1", "experimental": "as §3, §1, §4"}, "[9]": {"tested_on": "lung tissue RARs", "assay": "SENCAR mouse lung tissue RARs, dietary RA", "assay_type": "in vivo", "experimental": "as §3, §1, §4"}, "[10]": {"details": "dietary RA 30 μg/g vs 3 μg/g diet, male SENCAR mice"}}, "note": "“Also recorded” adds a separate entry of the source.", "data": [{"smiles": "CC1=C(/C=C/C(C)=C/C=C/C(C)=C/C(=O)O)C(C)(C)CCC1", "note": "[RA, all-trans-retinoic acid]", "values": [{"measurement": "TGase II Activity", "setting": "[1]; MCF-7 cells treated at 10^−6 M for 72 hours, DMSO control 0.183", "result": "1.359+/−0.098 picomoles/μg protein/30 minutes"}, {"measurement": "stimulating TGase II activity", "setting": "[1]; MCF-7 cells, 10^−6 M, 72 hours, over DMSO", "result": 7.4, "unit": "Fold"}, {"measurement": "upregulation of liver RAR (first named, α)", "setting": "[2]; [10]", "result": 21.8, "unit": "fold"}, {"measurement": "RARα densitometry of Western blots", "setting": "[2]; RA diet 3 μg/g", "result": "12.1+/−7.2 IDV"}, {"measurement": "RARα densitometry of Western blots", "setting": "[2]; RA diet 30 μg/g", "result": "264+/−21.3 IDV"}, {"measurement": "upregulation of liver RAR (second named, β)", "setting": "[3]; [10]", "result": 13.5, "unit": "fold"}, {"measurement": "RARβ densitometry of Western blots", "setting": "[3]; RA diet 3 μg/g", "result": "18.9+/−7.4 IDV"}, {"measurement": "RARβ densitometry of Western blots", "setting": "[3]; RA diet 30 μg/g", "result": "254+/−31.9 IDV"}, {"measurement": "upregulation of liver RAR (third named, γ)", "setting": "[4]; [10]", "result": 12.5, "unit": "fold"}, {"measurement": "RARγ densitometry of Western blots", "setting": "[4]; RA diet 3 μg/g", "result": "23.1+/−6.7 IDV"}, {"measurement": "RARγ densitometry of Western blots", "setting": "[4]; RA diet 30 μg/g", "result": "288+/−17.4 IDV"}, {"measurement": "RARα immunohistochemical staining in liver nuclei", "setting": "[5]", "result": "striking increase of RAR expression; also recorded: marked increase in staining"}, {"measurement": "stimulation of liver RAR (first named, α)", "setting": "[6]", "result": 2, "unit": "fold"}, {"measurement": "stimulation of liver RAR (second named, β)", "setting": "[7]", "result": 4, "unit": "fold"}, {"measurement": "stimulation of liver RAR (third named, γ)", "setting": "[8]", "result": 2.1, "unit": "fold"}, {"measurement": "effect of dietary RA on lung tissue RARs", "setting": "[9]; long term feeding of 30 μg/g diet, SENCAR mouse", "result": "failed to induce"}, {"measurement": "effect of dietary RA on lung tissue RARs", "setting": "[9]; time course, 1 to 28 days, 30 μg/g diet, not shown", "result": "without any measurable effect; also recorded: no effect"}]}]}
